Results taken from patent publication US20080293712A1, “Benzo[C][2,7]Naphtyridine Derivatives, Methods of Making Thereof and Methods of Use Thereof” (WYETH, priority 2007, published 2008).
Like-named read-outs stand apart in the source and are kept apart here.

Molecular target: T1, PDK-1 (Homo sapiens, UniProt O15530)
T1 sequence (O15530 1-556): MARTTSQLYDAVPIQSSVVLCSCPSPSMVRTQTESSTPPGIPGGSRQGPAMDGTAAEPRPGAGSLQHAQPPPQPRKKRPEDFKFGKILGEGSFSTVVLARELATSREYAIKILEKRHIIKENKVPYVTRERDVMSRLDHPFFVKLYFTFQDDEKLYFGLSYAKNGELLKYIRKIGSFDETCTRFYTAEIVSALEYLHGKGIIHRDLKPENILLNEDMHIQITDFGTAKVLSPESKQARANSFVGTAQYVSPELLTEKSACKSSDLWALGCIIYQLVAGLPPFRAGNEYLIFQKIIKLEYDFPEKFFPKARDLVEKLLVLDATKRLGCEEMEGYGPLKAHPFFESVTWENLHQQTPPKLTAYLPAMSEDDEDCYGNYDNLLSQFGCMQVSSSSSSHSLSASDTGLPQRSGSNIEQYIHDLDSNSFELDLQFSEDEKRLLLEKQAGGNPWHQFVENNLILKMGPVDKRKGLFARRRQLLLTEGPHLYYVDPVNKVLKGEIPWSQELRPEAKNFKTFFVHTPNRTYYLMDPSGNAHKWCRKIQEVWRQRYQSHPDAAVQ
Test: PDK-1 kinase inhibition ELISA assay (phosphorylation of His6-tagged SGK1 S422D by PDK-1)
Type: biochemical

[1] = PDK-1 ELISA, Table 11, read-out: Average IC50

Row | Structure (SMILES) | IC50 [1] | IC50
1 | COc1cc2ncc3c(N)nc(-c4cncc(OC[C@@H](N)CN5CCC[C@H]5c5nccs5)c4)cc3c2cc1OC [Ib-98, 2-[5-({(2S)-2-amino-3-[(2S)-2-(1,3-thiazol-2-yl)pyrrolidin-1-yl]propyl}oxy)pyridin-3-yl]-8,9-dimethoxybenzo[c][2,7]naphthyridin-4-amine] | 0.01 µM | 
2 | COc1cc(F)cc(-c2cc3c(cnc4cc(OC)c(OC)cc43)c(N)n2)c1 [Ib-242, 2-(3-fluoro-5-methoxyphenyl)-8,9-dimethoxybenzo[c][2,7]naphthyridin-4-amine] | 0.147 µM | 
3 | COc1cc2c(cc1OCCN1CCN(C)CC1)ncc1c(N)nc(-n3ccnc3)cc12 [Ia-10, 2-(1H-imidazol-1-yl)-9-methoxy-8-(2-(4-methylpiperazin-1-yl)ethoxy)benzo[c][2,7]naphthyridin-4-amine] | 1.15 µM | 
4 | COc1cc2ncc3c(N)nc(-c4cncc(Oc5ncccc5N)c4)cc3c2cc1OC [Ib-169, 2-{5-[(3-Aminopyridin-2-yl)oxy]pyridin-3-yl}-8,9-dimethoxybenzo[c][2,7]naphthyridin-4-amine] | 0.06 µM | 
5 | COc1cc2ncc3c(N)nc(-c4cncc(OC[C@@H](N)CNc5ccc(F)c(Cl)c5)c4)cc3c2cc1OC [Ib-84, (2S)-3-{[5-(4-amino-8,9-dimethoxybenzo[c][2,7]naphthyridin-2-yl)pyridin-3-yl]oxy}-N1-(3-chloro-4-fluorophenyl)propane-1,2-diamine] | 0.005 µM | 
6 | COc1cc2ncc3c(N)nc(-c4cncc(OC[C@@H](N)CNC5CCC(O)CC5)c4)cc3c2cc1OC (stereo partly drawn) [Ib-91, 4-{[(2S)-2-amino-3-{[5-(4-amino-8,9-dimethoxybenzo[c][2,7]naphthyridin-2-yl)pyridin-3-yl]oxy}propyl]amino}cyclohexanol] | 0.04 µM | 
7 | COc1cc2ncc3c(N)nc(-c4cncc(Oc5cccc(N)n5)c4)cc3c2cc1OC [Ib-171, 2-{5-[(6-Aminopyridin-2-yl)oxy]pyridin-3-yl}-8,9-dimethoxybenzo[c][2,7]naphthyridin-4-amine] | 0.153 µM | 
8 | COc1cc2ncc3c(N)nc(-c4cncc(OC[C@@H](N)COc5cc(C(F)(F)F)ccc5F)c4)cc3c2cc1OC [Ib-144, 2-[5-({(2R)-2-amino-3-[2-fluoro-5-(trifluoromethyl)phenoxy]propyl}oxy)pyridin-3-yl]-8,9-dimethoxybenzo[c][2,7]naphthyridin-4-amine] | 0.064 µM | 
9 | COc1cc2ncc3c(N)nc(-c4cncc(Nc5ccccc5CCO)c4)cc3c2cc1OC [Ib-197, 2-(2-{[5-(4-amino-8,9-dimethoxybenzo[c][2,7]naphthyridin-2-yl)pyridin-3-yl]amino}phenyl)ethanol] |  | 0.024 µM
10 | COCCOc1cc2ncc3c(N)nc(N(C)C(C)C)cc3c2cc1OC [Ia-45, N^2-isopropyl-9-methoxy-8-(2-methoxyethoxy)-N^2-methylbenzo[c]-2,7-naphthyridine-2,4-diamine] | 1.43 µM | 
11 | COc1cc2ncc3c(NO)nc(-c4cncc(OC[C@@H](N)Cc5c[nH]c6ccccc56)c4)cc3c2cc1OC [Compound I-1, 2-(5-{[(2S)-2-amino-3-(1H-indol-3-yl)propyl]oxy}pyridin-3-yl)-N-hydroxy-8,9-dimethoxybenzo[c]-2,7-naphthyridin-4-amine] | 0.08 µM | 
12 | COCCOc1cc2ncc3c(N)nc(Cl)cc3c2cc1OC [Ia-61, 2-Chloro-9-methoxy-8-(2-methoxyethoxy)benzo[c]-2,7-naphthyridin-4-amine] | 2.62 µM | 
13 | COc1cc2ncc3c(N)nc(-c4cncc(OC[C@@H](N)COc5ccc(CCC#N)cc5)c4)cc3c2cc1OC [Ib-158, 3-(4-{[(2S)-2-amino-3-{[5-(4-amino-8,9-dimethoxybenzo[c][2,7]naphthyridin-2-yl)pyridin-3-yl]oxy}propyl]oxy}phenyl)propanenitrile] | 0.055 µM | 
14 | COc1cc2ncc3c(N)nc(-c4cncc(OC[C@@H](Cc5ccccc5)NC=O)c4)cc3c2cc1OC [Ib-16, N-((1R)-2-{[5-(4-amino-8,9-dimethoxybenzo[c]-2,7-naphthyridin-2-yl)pyridin-3-yl]oxy}-1-benzylethyl)formamide] | 0.038 µM | 
15 | Nc1nc(-n2ccnc2)cc2c1cnc1cc(Br)ccc12 [Ia-37, 8-Bromo-2-(1H-imidazol-1-yl)benzo[c]-2,7-naphthyridin-4-amine] | 0.527 µM | 
16 | COc1cc2ncc3c(N)nc(-c4cncc(Nc5ccccc5F)c4)cc3c2cc1OC [Ib-205, 2-{5-[(2-fluorophenyl)amino]pyridin-3-yl}-8,9-dimethoxybenzo[c][2,7]naphthyridin-4-amine] |  | 0.183 µM
17 | COc1cc2ncc3c(N)nc(-c4cncc(OC[C@@H](N)CN5CCN(c6ccccn6)CC5)c4)cc3c2cc1OC [Ib-20, 2-(5-{[(2S)-2-amino-3-(4-pyridin-2-ylpiperazin-1-yl)propyl]oxy}pyridin-3-yl)-8,9-dimethoxybenzo[c]-2,7-naphthyridin-4-amine] | 0.066 µM | 

Row | Structure (SMILES) | IC50 [1] | IC50
18 | COc1cc2ncc3c(N)nc(-c4cncc(OC[C@@H](N)COc5cc(C)ccn5)c4)cc3c2cc1OC [Ib-152, 2-[5-({(2R)-2-amino-3-[(4-methylpyridin-2-yl)oxy]propyl}oxy)pyridin-3-yl]-8,9-dimethoxybenzo[c][2,7]naphthyridin-4-amine] | 0.009 µM | 
19 | COc1cc2ncc3c(N)nc(-c4cncc(Nc5ccccc5C#N)c4)cc3c2cc1OC [Ib-178, 2-{[5-(4-amino-8,9-dimethoxybenzo[c][2,7]naphthyridin-2-yl)pyridin-3-yl]amino}benzonitrile] | 0.105 µM | 
20 | COc1ccc(-c2cc3c(cnc4cc(OC)c(OC)cc43)c(N)n2)cn1 [Ib-237, 8,9-dimethoxy-2-(6-methoxypyridin-3-yl)benzo[c][2,7]naphthyridin-4-amine] | 0.05 µM | 
21 | COc1cc2ncc3c(N)nc(-c4cncc(OC[C@@H](N)CNc5nccc(C)n5)c4)cc3c2cc1OC [Ib-113, (2S)-3-{[5-(4-amino-8,9-dimethoxybenzo[c][2,7]naphthyridin-2-yl)pyridin-3-yl]oxy}-N1-(4-methylpyrimidin-2-yl)propane-1,2-diamine] | 0.02 µM | 
22 | COc1cc2ncc3c(N)nc(-c4cccc(C(=O)O)c4)cc3c2cc1OC [Ib-76, 3-(4-amino-8,9-dimethoxybenzo[c][2,7]naphthyridin-2-yl)benzoic acid] | 0.524 µM | 
23 | COc1cc2ncc3c(N)nc(-c4cncc(OC[C@@H](N)CNc5ccc(N)cc5)c4)cc3c2cc1OC [Ib-111, N-[(2S)-2-amino-3-{[5-(4-amino-8,9-dimethoxybenzo[c][2,7]naphthyridin-2-yl)pyridin-3-yl]oxy}propyl]benzene-1,4-diamine] | 0.081 µM | 
24 | COc1cc2ncc3c(N)nc(-c4cncc(OC[C@@H](N)CN(C)c5cccc(F)c5)c4)cc3c2cc1OC [Ib-83, (2S)-3-{[5-(4-amino-8,9-dimethoxybenzo[c][2,7]naphthyridin-2-yl)pyridin-3-yl]oxy}-N1-(3-fluorophenyl)-N1-methylpropane-1,2-diamine] | 0.005 µM | 
25 | COc1cc2ncc3c(NO)nc(-c4cncc(OC[C@@H](N)Cc5cccc(Cl)c5)c4)cc3c2cc1OC [Compound I-2, 2-(5-{[(2S)-2-amino-3-(3-chlorophenyl)propyl]oxy}pyridin-3-yl)-N-hydroxy-8,9-dimethoxybenzo[c]-2,7-naphthyridin-4-amine] | > 0.1 µM | 
26 | COc1cc2ncc3c(N)nc(-c4cncc(OC[C@@H]5CN=C(Nc6ccccc6)N5)c4)cc3c2cc1OC [Ib-114, 2-(5-{[(5S)-2-anilino-4,5-dihydro-1H-imidazol-5-yl]methoxy}pyridin-3-yl)-8,9-dimethoxybenzo[c][2,7]naphthyridin-4-amine] | 0.082 µM | 
27 | COc1cc2ncc3c(N)nc(-c4cncc(OC[C@@H](N)COc5ccccc5F)c4)cc3c2cc1OC [Ib-141, 2-(5-{[(2R)-2-amino-3-(2-fluorophenoxy)propyl]oxy}pyridin-3-yl)-8,9-dimethoxybenzo[c][2,7]naphthyridin-4-amine] | 0.01 µM | 
28 | COc1ccccc1Nc1cncc(-c2cc3c(cnc4cc(OC)c(OC)cc43)c(N)n2)c1 [Ib-181, 8,9-dimethoxy-2-{5-[(2-methoxyphenyl)amino]pyridin-3-yl}benzo[c][2,7]naphthyridin-4-amine] |  | 0.0737 µM
29 | COc1cc2ncc3c(N)nc(-c4cncc(OC[C@@H](N)CN(C)S(=O)(=O)c5ccccc5)c4)cc3c2cc1OC [Ib-79, N-[(2S)-2-amino-3-{[5-(4-amino-8,9-dimethoxybenzo[c][2,7]naphthyridin-2-yl)pyridin-3-yl]oxy}propyl]-N-methylbenzenesulfonamide] | 0.011 µM | 
30 | COc1cc2ncc3c(N)nc(-c4cncc(CCC(C)(C)N)c4)cc3c2cc1OC [Ib-257, 2-[5-(3-amino-3-methylbutyl)pyridin-3-yl]-8,9-dimethoxybenzo[c][2,7]naphthyridin-4-amine] | 0.029 µM | 
31 | COc1cc2ncc3c(N)nc(N4CC[C@H](N(C)C)C4)cc3c2cc1OC [Ib-67, 2-[(3S)-3-(dimethylamino)pyrrolidin-1-yl]-8,9-dimethoxybenzo[c]-2,7-naphthyridin-4-amine] | 9.64 µM | 
32 | COc1cc2ncc3c(N)nc(-c4cncc(OC[C@@H](N)COc5ccc(F)c(F)c5)c4)cc3c2cc1OC [Ib-143, 2-(5-{[(2S)-2-amino-3-(3,4-difluorophenoxy)propyl]oxy}pyridin-3-yl)-8,9-dimethoxybenzo[c][2,7]naphthyridin-4-amine] | 0.007 µM | 
33 | COCCOc1cc2ncc3c(N)nc(N4CCCC4)cc3c2cc1OC [Ia-62, 9-Methoxy-8-(2-methoxyethoxy)-2-pyrrolidin-1-ylbenzo[c]-2,7-naphthyridin-4-amine] | 1.86 µM | 
